According to PMC7792944, “Pharmacological Characterization of µ-Opioid Receptor Agonists with Biased G Protein or β-Arrestin Signaling, and Computational Study of Conformational Changes during Receptor Activation” (Molecules, 2020):
Values joined by “and” are separate entries in the source; they are usually repeats but may differ in a detail not shown here. Equal values may be shown once. Bridge positions count the residues as written; N and C are the ends. Square brackets hold non-standard residues; d marks the D form. Ends that are not written are not given here. Peptide text beside a SMILES is read from it. Phe(4-CF3) = N[C@@H](Cc1ccc(C(F)(F)F)cc1)C(=O)O; Dmt = Cc1cc(O)cc(C)c1C[C@H](N)C(=O)O

What was measured:
MOP/G-protein = conditions: BRET, [45] (C-33), cited from earlier work; for MOP/G-protein α±SEM: maximal effect, ref [44]; for MOP/G-protein pEC50 (CL95%): ref [44] (EM-2, F-81)
human recombinant DOP = system: human recombinant DOP; set-up: method as in ref [44], [45] (C-33); conditions: ref [44], [45] (C-33), cited from earlier work; for DOP pEC50 (CL95%): calcium signaling via chimeric G proteins; for DOP α±SEM: maximal effect, calcium signaling
MOP/β-arrestin 2 = conditions: cited from earlier work; for MOP/β-arrestin 2 pEC50 (CL95%): ref [44] (EM-2, F-81)
human recombinant KOP = system: human recombinant KOP; set-up: method as in ref [44], [45] (C-33); conditions: ref [44], [45] (C-33), cited from earlier work; for KOP pEC50 (CL95%): calcium signaling via chimeric G proteins; for KOP α±SEM: maximal effect, calcium signaling
DOP = conditions: read-out: Ki DOP; [3H]deltorphin-2, human opioid receptor membranes; ref [44] (F-81), [45] (C-33); cited from earlier work
KOP = target: KOP; set-up: method as in ref [44] (F-81), [45] (C-33); conditions: [3H]U-69593, human opioid receptor membranes; ref [44] (F-81), [45] (C-33); cited from earlier work
[1] = set-up: method as in ref [44] (F-81), [45] (C-33); conditions: ref [44] (F-81), [45] (C-33); cited from earlier work
human recombinant MOP = conditions: cited from earlier work; for MOP pEC50 (CL95%): calcium signaling via chimeric G proteins, ref [44] (EM-2, DPDPE, Dyn A, F-81); for MOP pEC50 (CL95%) / MOP α±SEM: [45] (C-33); for MOP α±SEM: maximal effect, calcium signaling, ref [44]
MOP [2] = target: MOP; set-up: method as in ref [44] (F-81), [45] (C-33); conditions: [3H]DAMGO, human opioid receptor membranes; ref [44] (F-81), [45] (C-33); cited from earlier work
DPP IV = system: DPP IV; set-up: method as in ref [44] (F-81), [45] (C-33); conditions: ref [44] (F-81), [45] (C-33); cited from earlier work
[3] = target: T1, CHO-K1 OPRM1 (μ-opioid receptor (MOP))/β-arrestin 2 (Homo sapiens, UniProt P35372); assay: PathHunter enzyme complementation assay, β-arrestin 2 recruitment; assay type: cell-based; conditions: for EC50 / %Stim: CHO-K1 OPRM1 β-arrestin 2 cell line; for EC50: mean ± SEM, n = 5; for %Stim: normalized to the maximum stimulation caused by EM-1 (100%)
T1 construct: host or cells: CHO-K1 (CHO-K1 OPRM1 β-arrestin cell line)
T1 sequence (P35372 whole entry): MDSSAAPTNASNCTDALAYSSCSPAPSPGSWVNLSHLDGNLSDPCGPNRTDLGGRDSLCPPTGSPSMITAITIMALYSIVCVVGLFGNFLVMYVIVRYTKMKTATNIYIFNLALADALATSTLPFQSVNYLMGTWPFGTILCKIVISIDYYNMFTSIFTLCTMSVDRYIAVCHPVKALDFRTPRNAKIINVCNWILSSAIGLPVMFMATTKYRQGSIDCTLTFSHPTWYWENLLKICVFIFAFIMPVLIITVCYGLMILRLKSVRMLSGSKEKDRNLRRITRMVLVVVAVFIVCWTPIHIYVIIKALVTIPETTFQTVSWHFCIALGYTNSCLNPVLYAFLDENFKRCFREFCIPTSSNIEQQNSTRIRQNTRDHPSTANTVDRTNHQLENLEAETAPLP
T1 sequence (P32121 whole entry partner): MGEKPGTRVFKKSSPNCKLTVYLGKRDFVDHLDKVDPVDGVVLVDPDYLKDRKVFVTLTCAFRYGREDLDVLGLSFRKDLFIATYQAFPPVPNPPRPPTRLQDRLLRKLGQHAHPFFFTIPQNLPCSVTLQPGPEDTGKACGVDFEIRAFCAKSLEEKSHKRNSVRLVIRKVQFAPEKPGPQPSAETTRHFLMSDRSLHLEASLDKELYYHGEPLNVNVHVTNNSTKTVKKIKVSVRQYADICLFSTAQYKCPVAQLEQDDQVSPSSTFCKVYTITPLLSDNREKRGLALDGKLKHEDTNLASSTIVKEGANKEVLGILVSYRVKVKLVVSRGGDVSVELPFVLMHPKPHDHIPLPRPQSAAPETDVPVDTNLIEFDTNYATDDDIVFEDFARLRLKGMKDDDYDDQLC
Procedure: Since in most studies reported in the introduction, β-arrestin 2 was used, for easy comparison we decided to characterize this isoform, despite being the minority as compared to β-arrestin 1 in most cells, including neurons. The use of β-arrestin 2 is supported by its similarity in opioid receptor binding with β-arrestin 1 [37, 50].
Measurement of β-arrestin 2 recruitment. β-arrestin 2 recruitment at MOP was measured using the DiscoveRxPathHunter® β-arrestin kit (DiscoveRx, Fremont, CA, USA) according to manufacturer’s recommendations and previously published procedure. CHO cells were engineered to co-express the ProLink™ (PK) tagged GPCR (GPCR-PK) and the enzyme acceptor (EA) tagged β-arrestin 2 (β-arrestin-EA) (CHO-K1 OPRM1 β-arrestin cell line). Activation of the GPCR-PK induces β-arrestin-EA recruitment, forcing complementation of the two β-galactosidase enzyme fragments (EA and PK). The resulting functional enzyme hydrolyzes substrate to generate a chemiluminescent signal which was measured by luminometry. Briefly, 20 μL of PathHunter cells as taken from the kit were seeded in each well and incubated overnight at 37 °C. […] Detection Reagent Working Solution (12 μL) was added and incubation was continued for 60 min at rt. Chemiluminescent signal was read using a Viewlux imaging plate reader (PerkinElmer, Cambridge, MA, USA).

human MOP = target: T2, human MOP (Homo sapiens, UniProt P35372); assay: [35S]GTPγS binding assay (G-protein activation) in CHO-hMOP cell membranes; assay type: biochemical; conditions: for %Stim: efficacy normalized to the maximum stimulation caused by EM-1
T2 construct: originator Prof L. Toll, SRI International; host or cells: CHO (CHO-hMOP), membranes
T2 sequence (P35372 whole entry): as the sequence (P35372 whole entry) above
Procedure: Herein, for the first time the biased agonism of F-81 and C-33 is analyzed by [^35S]GTPγS binding assay (Table 1) and PathHunter enzyme complementation assay (Table 2). [^35S]GTPγS binding assay, which characterizes ligand-driven G protein activation, was performed in CHO cells stably expressing the human MOP [46, 47].
[^35S]GTPγS binding assay. CHO cells stably expressing the human MOP receptor (in brief, CHO-hMOP cells, provided by Prof G. Calo, University of Ferrara; originator was Prof L. Toll, SRI International, Menlo Park, CA, USA) were grown in Hams F12 containing streptomycin (100 μg/mL), fungizone 2.5 μg/mL), penicillin (100 IU/mL) and 10% fetal bovine serum (FBS). Stock medium containing G418 (200 μg/mL) was used to maintain CHO-hMOP expression. Experiments were performed according to the literature. Cell membranes (5–10 µg) were incubated at 30 °C with 0.05 nM [^35S]GTPγS (PekinElmer, 549 Albany St, Boston, MA 02118, US), 10 µM GDP and various concentrations of a tested peptide in the final volume of 1 mL, for 60 min. Non-specific binding was determined using 10 µM GTPγS, and the basal binding was determined in the absence of a tested peptide. Incubations were terminated by rapid filtration through the GF/B Whatman glass fiber strips and the bound radioactivity was measured in a liquid scintillation counter. Five independent experiments were carried out. The data were analyzed by a nonlinear least square regression analysis computer program Graph Pad PRISM 5.0 (GraphPad Software Inc., San Diego, CA, USA).

MOP [4] = system: MOP; set-up: method as in PMID 31351108; conditions: Gαi2 and GαoA; ref [43]; cited from earlier work

Molecule: Tyr-Pro-Phe-Phe-NH2 (YPFF-NH2) [EM-2, reference compound]
- MOP/G-protein α±SEM (MOP/G-protein): 1.00
- MOP/G-protein pEC50 (CL95%) (MOP/G-protein): 7.32
- DOP pEC50 (CL95%) (human recombinant DOP): inactive
- MOP/β-arrestin 2 α±SEM (MOP/β-arrestin 2; BRET, maximal effect, ref [44], [45] (C-33)): 1.00
- MOP/β-arrestin 2 pEC50 (CL95%) (MOP/β-arrestin 2; BRET, [45] (C-33)): 7.20
- bias factor (CL95%) (MOP/β-arrestin 2; calculated by using EM-2 as a standard unbiased ligand, ref [44], [45] (C-33)): 0.00
- KOP pEC50 (CL95%) (human recombinant KOP): inactive
- Ki (DOP): > 1000 nM
- Ki (KOP): > 1000 nM
- Enzymatic stability Area [%] 120 min Homogenate [1]: 6.5±0.15%
- MOP pEC50 (CL95%) (human recombinant MOP): 7.83
- MOP α±SEM (human recombinant MOP): 1.00
- Ki (MOP [2]): 2.5 ± 0.05 nM
- Enzymatic stability Area [%] 120 min DPP IV (DPP IV): 1.9±0.03%

Molecule: Cc1cc(O)cc(C)c1C[C@H](N)C(=O)N[C@@H]1CCCCNC(=O)C[C@@H](C(N)=O)NC(=O)[C@H](Cc2ccc(C(F)(F)F)cc2)NC(=O)[C@H](Cc2ccccc2)NC1=O [F-81, Dmt-c[D-Lys-Phe-p-CF3-Phe-Asp]NH2] (H-[Dmt][dK]F[Phe(4-CF3)]D-NH2; lactam 2-5)
- MOP/G-protein α±SEM (MOP/G-protein): 0.82±0.04
- MOP/G-protein pEC50 (CL95%) (MOP/G-protein): 8.28
- DOP pEC50 (CL95%) (human recombinant DOP): inactive
- MOP/β-arrestin 2 pEC50 (CL95%) (MOP/β-arrestin 2; BRET, [45] (C-33)): inactive
- receptor/β-arrestin interaction (in words) (MOP/β-arrestin 2; BRET, ref [44]): did not promote receptor/β-arrestin interaction
- KOP pEC50 (CL95%) (human recombinant KOP): 8.22
- KOP α±SEM (human recombinant KOP): 0.63±0.04
- Ki (DOP): > 1000 nM
- EC50 [3]: 0.398 nM
- %Stim [3]: 41% and 41 ± 15 %
- agonist behaviour, β-arrestin 2 recruitment (in words) ([3]; PathHunter, compared to EM-1): low efficacy partial agonist
- Ki (KOP): 31.1 nM
- Enzymatic stability Area [%] 120 min Homogenate [1]: 90.7±3.14%
- higher potency than the reference EM-2 (human recombinant MOP; calcium mobilization assay, MOP, ref [44],[45]): 2 fold
- MOP pEC50 (CL95%) (human recombinant MOP): 8.19
- MOP α±SEM (human recombinant MOP): 0.8±0.05
- Ki (MOP [2]): 2.4 nM
- EC50 (human MOP): 0.112 nM
- Class (human MOP; CHO-hMOP, [35S]GTPγS binding): high efficacy partial agonist
- %Stim (human MOP; CHO-hMOP): 68 ± 1 %
- Enzymatic stability Area [%] 120 min DPP IV (DPP IV): 92.1±3.27%

Molecule: DPDPE
- DOP pEC50 (CL95%) (human recombinant DOP): 7.33
- DOP α±SEM (human recombinant DOP): 1.00
- KOP pEC50 (CL95%) (human recombinant KOP): inactive
- MOP pEC50 (CL95%) (human recombinant MOP): inactive

Molecule: Cc1cc(O)cc(C)c1C[C@H](N)C(=O)N[C@@H]1CCCCNC(=O)C[C@@H](C(N)=O)NC(=O)[C@H](Cc2ccccc2)NC1=O [C-33, Dmt-c[D-Lys-Phe-Asp]NH2] (H-[Dmt][dK]FD-NH2; lactam 2-4)
- EC50 [3]: 2.51 nM
- %Stim [3]: 156% and 156 ± 3 %
- Enzymatic stability Area [%] 120 min Homogenate [1]: 89±2.27%
- EC50 (human MOP): 0.0794 nM
- %Stim (human MOP; CHO-hMOP): 88 ± 3%
- Enzymatic stability Area [%] 120 min DPP IV (DPP IV): 91.1±4.21%

Molecule: Dyn A: reference agonist in calcium mobilization assay (KOP)
- DOP pEC50 (CL95%) (human recombinant DOP): 7.73
- DOP α±SEM (human recombinant DOP): 0.99±0.04
- KOP α±SEM (human recombinant KOP): 1.00
- MOP pEC50 (CL95%) (human recombinant MOP): 6.67
- MOP α±SEM (human recombinant MOP): 0.83±0.10

Molecule: COc1ccsc1CNCC[C@]1(c2ccccn2)CCOC2(CCCC2)C1 [(S)-TRV130]
- G protein activation, less potent compared to its (R)-isomer (MOP [4]): 90 fold
